Experimental findings from patent US11166461B2, “Methods of controlling or preventing infestation of soybean plants by phytopathogenic microorganisms” (SYNGENTA PARTICIPATIONS AG, priority 2017, dated 2021) are described below.

In experiment [1] the test system is Fusarium virguliforme. Description: Seed treatments on soybean cv. Toliman infected with Fusarium virguliforme (growth chamber pot test). It is filed as in vivo. As to conditions: 29 DAS; for % Disease severity: SDS index normalized to 100 for untreated infected control; for % Infected plants: soybean cv. Toliman. The method, then:
Effect of Different Seed Treatments on Soybean Cv. Toliman Infected with Fusarium virguliforme:
Fusarium virguliforme/Soybean
5×5 soybean seeds cv. Toliman were sown into plastic pots. A mixture of 50% vol. sand and 50% vol. sterilized field soil was used as substrate. A layer of F. virguliforme infected millet seeds was placed below the soybean seeds. The test was kept in a growth chamber at 25° C. with 14 h artificial light; plants were irrigated up to field capacity. For the last five cultivation days, plants were kept at 18° C. The number of infected plants was counted 29 Days After Sowing (DAS).
Disease assessment was done visually 29 DAS, by classifying the plants according to a disease severity scale for SDS modified from Scandiani et al. (2011)* and J. Bond using classes from 0 to 4. The number of plants in each class were assessed. This allows calculating an “SDS Index” by multiplying the number of plants in each class with the disease severity (0, 1, 2, 3 or 4) and adding the products for all classes. SDS Index=n1×0+n2×1+n3×2+n4×3+n5×4. The SDS index is normalized to give an index of 100 for the untreated, infected control (UTCINF) and by calculating the normalized index for all treatments relative to the UTCINF. Shoot dry weight and shoot size was determined 29 DAS. • *Scandiani M., Ruberti D., Giorda L., Pioli R., Luque A., Bottai B., Ivancovich J., Aoki T., & O'Donnell K.: Comparison of inoculation methods for characterizing relative aggressiveness of two soybean sudden-death syndrome pathogens, Fusarium virguliforme and F. tucumaniae. Tropical Plant Pathology, vol. 36, 3, 133-140, 2011 Effect of Different Seed Treatments in the Field Against Sudden Death Syndrome (SDS) Caused by Fusarium virguliforme

Experiment [2] deals with Fusarium virguliforme. Description: Seed treatments in the field against Sudden Death Syndrome (SDS) caused by Fusarium virguliforme, soybean field trial Clinton, Ill. It is filed as in vivo. The settings on record: seed treatment 0.15 mg ai/seed plus base treatment; for % efficacy based on disease incidence / % disease incidence: 107 days after planting; for % efficacy based on disease incidence: 100 − (100/(untreated/treated)); for % disease incidence: infected plants per plot; for Yield (bushel/acre) / % yield increase: 150 days after planting; for Yield (bushel/acre): full plot harvest; for % yield increase: versus untreated. The method, then: Disease assessment was done visually 29 DAS, by classifying the plants according to a disease severity scale for SDS modified from […] et al. (2011)* and J. Bond using classes from 0 to 4. The number of plants in each class were assessed. […] SDS Index=n1×0+n2×1+n3×2+n4×3+n5×4. The SDS index is normalized to give an index of 100 for the untreated, infected control ([…]) and by calculating the normalized index for all treatments relative to the […]. Shoot dry weight and shoot size was determined 29 […]., Ruberti D., Giorda L., Pioli R., Luque […]., Aoki T., & O'Donnell K.: Comparison of inoculation methods for characterizing relative aggressiveness of two soybean sudden-death syndrome pathogens, Fusarium virguliforme and F. tucumaniae. Tropical Plant Pathology, vol. 36, 3, 133-140, 2011 Effect of Different Seed Treatments in the Field Against Sudden Death Syndrome (SDS) Caused by Fusarium virguliforme A soybean field trial was carried out in Clinton, Ill., USA. This site had historically SDS occurrence reported. […] The disease occurred end of August and an assessment on disease incidence (counting of infected plants) was done Sep. 15, 2017. The yield of the grain data has been taken at the end of the season. [table] [table] [table]

Turning to `O=C(NC1CCC1c1ccc(F)cc1Cl)c1ncccc1C(F)(F)F` (stereo not shown) [Compound 4], in the experiment on Fusarium virguliforme [1] (seed treatment 10 g ai/100 kg), the “Shoot dry weight” value is recorded as 3.89 g, the “Shoot length in mm” value is 541 mm, the “% Disease severity” value worked out at 5% and the “% Infected plants” value came to 8%. In the experiment with Fusarium virguliforme [1] (seed treatment 20 g ai/100 kg), the “Shoot dry weight” value came to 3.77 g, the “Shoot length in mm” value came out at 526 mm, the “% Disease severity” value was 5% and the “% Infected plants” value worked out at 8%.

With `O=C(NCCc1ncc(C(F)(F)F)cc1Cl)c1ccccc1C(F)(F)F` [Fluopyram, reference compound], in the experiment on Fusarium virguliforme [2], the “yield increase (in words)” value is “did not increase the yield”, the “% efficacy based on disease incidence” value turned out to be 58.33%, the “% disease incidence” value came out at 25.00 B % and the “Yield (bushel/acre)” value amounted to 68.38 A bushel/acre. The “% yield increase” value in the experiment with Fusarium virguliforme [2] is given as −3.74%.

For the molecule `O=C(NC1CCC1c1ccc(F)cc1Cl)c1cccnc1C(F)(F)F` (stereo not shown) [Compound 7], in the experiment on Fusarium virguliforme [1] (seed treatment 10 g ai/100 kg), the “Shoot dry weight” value is listed as 4.09 g, the “Shoot length in mm” value was 565 mm, the “% Disease severity” value is reported as 1% and the “% Infected plants” value is recorded as 4%. For the same molecule, in the experiment with Fusarium virguliforme [1] (seed treatment 20 g ai/100 kg), the “Shoot dry weight” value stood at 4.01 g, the “Shoot length in mm” value was 530 mm, the “% Disease severity” value was determined as 0% and the “% Infected plants” value is 0%.

For `O=C(NC1CCC1c1ccc(Cl)cc1Cl)c1cccnc1C(F)(F)F` (stereo not shown) [Compound 1], in the experiment with Fusarium virguliforme [2], the “yield increase over the untreated check” value is 8.11 bushels per acre, the “% efficacy based on disease incidence” value was 79.72%, the “% disease incidence” value was 12.17 B % and the “Yield (bushel/acre)” value was 79.15 A bushel/acre. Further, in the experiment on Fusarium virguliforme [2], the “% yield increase” value is recorded as 11.42%. In the experiment with Fusarium virguliforme [1] (seed treatment 10 g ai/100 kg), the “Shoot dry weight” value is listed as 3.57 g, the “Shoot length in mm” value came to 505 mm, the “% Disease severity” value is 17% and the “% Infected plants” value was determined as 28%. In addition, in the experiment with Fusarium virguliforme [1] (seed treatment 20 g ai/100 kg), the “Shoot dry weight” value is 4.16 g, the “Shoot length in mm” value was 587 mm, the “% Disease severity” value is listed as 0% and the “% Infected plants” value is 0%.
